Experimental data taken from patent publication US8278469B2, “17-hydroxy-17-pentafluoroethyl-estra-4,9(10)-dien-11-aryl derivatives, method of production thereof and use thereof for the treatment of diseases” (Bayer Pharma Aktiengesellschaft, priority 2009, dated 2012).

What was measured:
[1] = Metabolic stability in human liver microsomes (HLM); assay type: in vitro ADME; conditions: HLM 0.5 mg/ml protein, 1 μM, 37° C., pH 7.4; well-stirred model, phase I reactions
Experimental: Metabolic Stability of (11β,17β)-17-hydroxy-11-[4-(methylsulphonyl)phenyl]-17-(pentafluoroethyl)estra-4,9-dien-3-one and (11β,17β)-17-hydroxy-11-[4′-(methylsulphonyl)-biphenyl-4-4-yl]-17-(pentafluoroethyl)estra-4,9-dien-3-one in Human Liver Microsomes (HLM)
Isolated human liver microsomes (HLM) were used for assessing the metabolic stability of compounds of general formula I.
Incubations were carried out with 2.4 ml of HLM solution (0.5 mg/ml protein content), 30 μl of the test compound (final concentration 1 μM) and 0.6 ml of the cofactor mixture (=NADPH-generating system of 3 IU glucose-6-phosphate dehydrogenase, 14.6 mg glucose-6-phosphate, 1.2 mg NADP) at 37° C. in 100 mM phosphate buffer at pH 7.4. Samples are taken at 6 time points (2-60 min), precipitated with an equal volume of methanol and the recovery of the test substances used in the supernatant is determined by LC-MS/MS analysis. The intrinsic clearance of the substance in the liver microsome preparation can be calculated from the half-life found for the breakdown of the substance. Based on this, together with various physiological characteristics according to the well-stirred model, it is then possible to predict a (metabolic) in vivo clearance with respect to phase I reactions. […]

[2] = Permeation in Caco-2 cells; assay type: in vitro ADME; conditions: human, Caco-2, 2 μM, 37° C., apical to basolateral
Experimental: Permeation of (11β,17β)-17-hydroxy-11-[4-(methylsulphonyl)phenyl]-17-(pentafluoroethyl)estra-4,9-dien-3-one in Caco-2 Cells
For the permeation studies, Caco-2 cells with a cell count of 300000 cells/ml were cultivated on Transwell Clear filter inserts (polyester; pore size 0.4 μm) in 12-well cell culture plates for at least 14 days in cell culture medium (1.5 ml) at 37° C., 5% CO2 and 95% air humidity. Before the test, to verify the “compactness” of the cell monolayer, the transepithelial resistance (TEER value) was determined, which must be greater than 300 Ωcm^2. Then the cell culture medium was replaced with hot transport buffer (0.5 ml apical, 1.5 ml basolateral) and the cells were equilibrated in it for 5 min. The permeability test was performed in duplicate at a substance concentration of 2 μM. At the start of the experiment, 100 μl (Ap0 min) was taken from the apical compartment and 100 μl of ice-cold stopping solution was added to it immediately. […] After further dilution of the samples with 4 times the volume of stopping solution/transport buffer (1+1) they were sedimented overnight at −20° C. and the supernatant was analysed by LCMS/MS. The Papp value of the substances was calculated from the following formula. […]

[3] = system: rodents and non-rodents; conditions: in vivo

Question: Which results are given for `C[C@]12C[C@H](c3ccc(S(C)(=O)=O)cc3)C3=C4CCC(=O)C=C4CC[C@H]3[C@@H]1CC[C@@]2(O)C(F)(F)C(F)(F)F` [Example 4, (11β,17β)-17-Hydroxy-11-[4-(methylsulphonyl)phenyl]-17-(pentafluoroethyl)estra-4,9-dien-3-one]?
Answer: (metabolic) in vivo clearance in humans predicted [1]: 1.7 mL/min/kg; Papp A→B at 90 min, 2 μM [2]: 10.4 ×10⁻⁶ cm/s; Safety profile (in acute and chronic tests) [3]: especially favourable safety profile
